Patent US9040528B2, “Chemical compounds 542” (AstraZeneca AB, priority 2008, dated 2015)

The compounds below were run against Escherichia coli DNA gyrase A/B tetramer (Escherichia coli (strain K12), UniProt P0AES4+P0AES6) (assay: DNA gyrase supercoiling activity fluorescence polarisation assay). Conditions: 5 nM enzyme, relaxed plasmid, 0.3 mM ATP, ambient temperature; read-out: E. coli DNA gyrase supercoiling IC50.
Assay type: biochemical
Outline: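 Supercoiling reactions quenched with 40 nM 5′-BODIPY-FL triplex-forming oligonucleotide probe in pH 3.5 NaCl/sodium acetate buffer; after 60 min, fluorescence anisotropy read (ex 485/em 535 nm). IC50 by nonlinear regression, normalised to 0.8% DMSO (100% activity) and 5 μM ciprofloxacin (0% activity).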

Question: For `C[C@@H]1CN2c3c(cc4c(-n5cc(C(=O)O)cn5)noc4c3F)CC3(C(=O)NC(=O)NC3=O)[C@H]2[C@H](C)O1` (relative stereo) [Example 186, 1-[(2R,4S,4aS)-rel-11-fluoro-2,4-dimethyl-2′,4′,6′-trioxo-1,1′,2,3′,4,4′,4a,6′-octahydro-2′H,6H-spiro[1,4-oxazino[4,3-a][1,2]oxazolo[4,5-g]quinoline-5,5′-pyrimidin]-8-yl]-1H-pyrazole-4-carboxylic acid], which IC50 is on record?
Answer: Its IC50 is 7600 nM.

Question: `C[C@@H]1CN2c3c(cc4c(-n5cc(C(=O)N(C)C)cn5)noc4c3F)CC3(C(=O)NC(=O)NC3=O)[C@H]2[C@H](C)O1` (relative stereo) [Example 187, 1-[(2R,4S,4aS)-rel-11-fluoro-2,4-dimethyl-2′,4′,6′-trioxo-1,1′,2,3′,4,4′,4a,6′-octahydro-2′H,6H-spiro[1,4-oxazino[4,3-a][1,2]oxazolo[4,5-g]quinoline-5,5′-pyrimidin]-8-yl]-N,N-dimethyl-1H-pyrazole-4-carboxamide] was tested. Which IC50 did it give?
Answer: Its IC50 is 3300 nM.

Question: `CNC(=O)c1cnn(-c2noc3c(F)c4c(cc23)CC2(C(=O)NC(=O)NC2=O)[C@H]2[C@H](C)O[C@H](C)CN42)c1` (relative stereo) [Example 188, 1-[(2R,4S,4aS)-rel-11-fluoro-2,4-dimethyl-2′,4′,6′-trioxo-1,1′,2,3′,4,4′,4a,6′-octahydro-2′H,6H-spiro[1,4-oxazino[4,3-a][1,2]oxazolo[4,5-g]quinoline-5,5′-pyrimidin]-8-yl]-N-methyl-1H-pyrazole-4-carboxamide] was tested. Which IC50 did it give?
Answer: Its IC50 is 2700 nM.

Question: For `C[C@@H]1CN2c3c(cc4c(-n5cc(C(N)=O)cn5)noc4c3F)CC3(C(=O)NC(=O)NC3=O)[C@H]2[C@H](C)O1` (relative stereo) [Example 189, 1-[(2R,4S,4aS)-rel-11-fluoro-2,4-dimethyl-2′,4′,6′-trioxo-1,1′,2,3′,4,4′,4a,6′-octahydro-2′H,6H-spiro[1,4-oxazino[4,3-a][1,2]oxazolo[4,5-g]quinoline-5,5′-pyrimidin]-8-yl]-1H-pyrazole-4-carboxamide], which IC50 is on record?
Answer: Its IC50 is 2200 nM.

Question: With `C[C@@H]1CN2c3c(cc4c(-n5cc(CO)cn5)noc4c3F)CC3(C(=O)NC(=O)NC3=O)[C@H]2[C@H](C)O1` (relative stereo) [Example 190, (2R,4S,4aS)-rel-11-fluoro-8-[4-(hydroxymethyl)-1H-pyrazol-1-yl]-2,4-dimethyl-1,2,4,4a-tetrahydro-2′H,6H-spiro[1,4-oxazino[4,3-a][1,2]oxazolo[4,5-g]quinoline-5,5′-pyrimidine]-2′,4′,6′(1′H,3′H)-trione] as the compound, how does the IC50 read?
Answer: Its IC50 is 2100 nM.

Question: How did the IC50 turn out when `C[C@@H]1CN2c3c(cc4c(C(N)=S)noc4c3F)CC3(C(=O)NC(=O)NC3=O)[C@H]2[C@H](C)O1` (relative stereo) [Intermediate 575, (2R,4S,4aS)-rel-11-fluoro-2,4-dimethyl-2′,4′,6′-trioxo-1,1′,2,3′,4,4′,4a,6′-octahydro-2′H,6H-spiro[1,4-oxazino[4,3-a][1,2]oxazolo[4,5-g]quinoline-5,5′-pyrimidine]-8-carbothioamide] was run?
Answer: The IC50 was 1000 nM.

Question: For `CC1O[C@H](C)CN2c3c(cc4c(-c5cnccn5)noc4c3F)CC3(C(=O)NC(=O)NC3=O)[C@H]12` (stereo in doubt) [Example 165(a), (2R,4S,4aR)-11-fluoro-2,4-dimethyl-8-(pyrazin-2-yl)-2,4,4a,6-tetrahydro-1H,1′H-spiro[isoxazolo[4,5-g][1,4]oxazino[4,3-a]quinoline-5,5′-pyrimidine]-2′,4′,6′(3′H)-trione], which IC50 is on record?
Answer: The IC50 was 7800 nM.

Question: How did the IC50 turn out when `Cc1noc2c(F)c3c(cc12)CC1(C(=O)NC(=O)NC1=O)[C@@H]1[C@@H](C)O[C@@H](C)CN31` [Example 2(a), (2S,4R,4aR)-11-fluoro-2,4,8-trimethyl-2,4,4a,6-tetrahydro-1′H,1′H-spiro[isoxazolo[4,5-g][1,4]oxazino[4,3-a]quinoline-5,5′-pyrimidine]-2′,4′,6′(3′H)-trione] was run?
Answer: Its IC50 is 83000 nM.

Question: With `Cc1noc2c(F)c3c(cc12)CC1(C(=O)NC(=O)NC1=O)[C@H]1[C@H](C)O[C@H](C)CN31` [Example 2(b), (2R,4S,4aS)-11-fluoro-2,4,8-trimethyl-2,4,4a,6-tetrahydro-1H,1′H-spiro[isoxazolo[4,5-g][1,4]oxazino[4,3-a]quinoline-5,5′-pyrimidine]-2′,4′,6′(3′H)-trione] as the compound, how does the IC50 read?
Answer: The IC50 was 300 nM.

Question: How did the IC50 turn out when `C[C@@H]1CN2c3c(cc4c(-n5cncn5)noc4c3F)CC3(C(=O)NC(=O)NC3=O)[C@H]2[C@H](C)O1` [Example 53(a), (2R,4 S,4 aS)-11-fluoro-2,4-dimethyl-8-(1H-1,2,4-triazol-1-yl)-2,4,4a,6-tetrahydro-1H,1′H-spiro[isoxazolo[4,5-g][1,4]oxazino[4,3-a]quinoline-5,5′-pyrimidine]-2′,4′,6′(3′H)-trione] was run?
Answer: Its IC50 is 200 nM.

Question: Which IC50 does the source give for `C[C@@H]1CN2c3c(cc4c(-n5cncn5)noc4c3F)CC3(C(=O)NC(=O)NC3=O)[C@@H]2[C@@H](C)O1` [Example 53(b), (2R,4R,4aR)-11-fluoro-2,4-dimethyl-8-(1H-1,2,4-triazol-1-yl)-2,4,4a,6-tetrahydro-1H,1′H-spiro[isoxazolo[4,5-g][1,4]oxazino[4,3-a]quinoline-5,5′-pyrimidine]-2′,4′,6′(3′H)-trione] here?
Answer: The IC50 was 20000 nM.

Question: For `C[C@H]1CN2c3c(cc4c(-c5ccncn5)noc4c3F)CC3(C(=O)NC(=O)NC3=O)[C@@H]2[C@@H](C)O1` [Example 74(a), (2S,4R,4aR)-11-fluoro-2,4-dimethyl-8-(pyrimidin-4-yl)-2,4,4a,6-tetrahydro-1H,1′H-spiro[isoxazolo[4,5-g][1,4]oxazino[4,3-a]quinoline-5,5′-pyrimidine]-2′,4′,6′(3′H)-trione], which IC50 is on record?
Answer: Its IC50 is 27000 nM.

Question: How did the IC50 turn out when `C[C@@H]1CN2c3c(cc4c(-c5ccncn5)noc4c3F)CC3(C(=O)NC(=O)NC3=O)[C@H]2[C@H](C)O1` [Example 74(b), (2R,4S,4aS)-11-fluoro-2,4-dimethyl-8-(pyrimidin-4-yl)-2,4,4a,6-tetrahydro-1H,1′H-spiro[isoxazolo[4,5-g][1,4]oxazino[4,3-a]quinoline-5,5′-pyrimidine]-2′,4′,6′(3′H)-trione] was run?
Answer: The IC50 was 300 nM.

Question: With `C[C@H]1CN2c3c(cc4c(C(F)(F)F)noc4c3F)CC3(C(=O)NC(=O)NC3=O)[C@@H]2[C@@H](C)O1` [Example 92(a), (2S,4R,4aR)-11-fluoro-2,4-dimethyl-8-(trifluoromethyl)-2,4,4a,6-tetrahydro-1H,1′H-spiro[isoxazolo[4,5-g][1,4]oxazino[4,3-a]quinoline-5,5′-pyrimidine]-2′,4′,6′(3′H)-trione] as the compound, how does the IC50 read?
Answer: Its IC50 is 65000 nM.

Question: How did the IC50 turn out when `C[C@@H]1CN2c3c(cc4c(C(F)(F)F)noc4c3F)CC3(C(=O)NC(=O)NC3=O)[C@H]2[C@H](C)O1` [Example 92(b), (2R,4S,4aS)-11-fluoro-2,4-dimethyl-8-(trifluoromethyl)-2,4,4a,6-tetrahydro-1H,1′H-spiro[isoxazolo[4,5-g][1,4]oxazino[4,3-a]quinoline-5,5′-pyrimidine]-2′,4′,6′(3′H)-trione] was run?
Answer: Its IC50 is 600 nM.

Question: For `C[C@H]1CN2c3c(cc4c(C(F)F)noc4c3F)CC3(C(=O)NC(=O)NC3=O)[C@@H]2[C@@H](C)O1` [Example 93(a), (2S,4R,4aR)-8-(difluoromethyl)-11-fluoro-2,4-dimethyl-2,4,4a,6-tetrahydro-1H,1′H-spiro[isoxazolo[4,5-g][1,4]oxazino[4,3-a]quinoline-5,5′-pyrimidine]-2′,4′,6′(3′H)-trione], which IC50 is on record?
Answer: The IC50 was 56000 nM.

Question: For `C[C@@H]1CN2c3c(cc4c(C(F)F)noc4c3F)CC3(C(=O)NC(=O)NC3=O)[C@H]2[C@H](C)O1` [Example 93(b), (2R,4S,4aS)-8-(difluoromethyl)-11-fluoro-2,4-dimethyl-2,4,4a,6-tetrahydro-1H,1′H-spiro[isoxazolo[4,5-g][1,4]oxazino[4,3-a]quinoline-5,5′-pyrimidine]-2′,4′,6′(3′H)-trione], which IC50 is on record?
Answer: The IC50 was 400 nM.

Question: For `C[C@H]1CN2c3c(cc4c(C(=O)NCC(F)F)noc4c3F)CC3(C(=O)NC(=O)NC3=O)[C@@H]2[C@@H](C)O1` [Example 94(a), (2S,4R,4aR)—N-(2,2-difluoroethyl)-11-fluoro-2,4-dimethyl-2′,4′,6′-trioxo-2,2′,3′,4,4a,4′,6,6′-octahydro-1H,1′H-spiro[isoxazolo[4,5-g][1,4]oxazino[4,3-a]quinoline-5,5′-pyrimidine]-8-carboxamide], which IC50 is on record?
Answer: The IC50 was 51000 nM.

Question: How did the IC50 turn out when `C[C@@H]1CN2c3c(cc4c(C(=O)NCC(F)F)noc4c3F)CC3(C(=O)NC(=O)NC3=O)[C@H]2[C@H](C)O1` [Example 94(b), (2R,4S,4aS)—N-(2,2-difluoroethyl)-11-fluoro-2,4-dimethyl-2′,4′,6′-trioxo-2,2′,3′,4,4a,4′,6,6′-octahydro-1H,1′H-spiro[isoxazolo[4,5-g][1,4]oxazino[4,3-a]quinoline-5,5′-pyrimidine]-8-carboxamide] was run?
Answer: Its IC50 is 800 nM.

Question: With `C[C@@H]1CN2c3c(cc4c(C(=O)N5CC(F)(F)C5)noc4c3F)CC3(C(=O)NC(=O)NC3=O)[C@H]2[C@H](C)O1` [Example 95(a), (2R,4S,4aS)-8-(3,3-difluoroazetidine-1-carbonyl)-11-fluoro-2,4-dimethyl-2,4,4a,6-tetrahydro-1H,1′H-spiro[isoxazolo[4,5-g][1,4]oxazino[4,3-a]quinoline-5,5′-pyrimidine]-2′,4′,6′(3′H)-trione] as the compound, how does the IC50 read?
Answer: The IC50 was 1000 nM.

Question: `C[C@@H]1CN2c3c(cc4c(-c5nccs5)noc4c3F)CC3(C(=O)NC(=O)NC3=O)[C@H]2[C@H](C)O1` [Example 96, (2R,4S,4aS)-11-fluoro-2,4-dimethyl-8-(thiazol-2-yl)-2,4,4a,6-tetrahydro-1H,1′H-spiro[isoxazolo[4,5-g][1,4]oxazino[4,3-a]quinoline-5,5′-pyrimidine]-2′,4′,6′(3′H)-trione] was tested. Which IC50 did it give?
Answer: Its IC50 is 700 nM.

Question: How did the IC50 turn out when `C[C@H]1CN2c3c(nc4c(-c5nccs5)noc4c3Cl)CC3(C(=O)NC(=O)NC3=O)[C@@H]2[C@@H](C)O1` [Example 111(a), (2S,4R,4aR)-11-chloro-2,4-dimethyl-8-(thiazol-2-yl)-2,4,4a,6-tetrahydro-1H,1′H-spiro[isoxazolo[4,5-g][1,4]oxazino[4,3-a][1,5]naphthyridine-5,5′-pyrimidine]-2′,4′,6′(3′H)-trione] was run?
Answer: Its IC50 is 83000 nM.
